# According to PMC11017246, “Discovery of GLPG2737, a Potent Type 2 Corrector of CFTR for the Treatment of Cystic Fibrosis in Combination with a Potentiator and a Type 1 Co-corrector” (Journal of Medicinal Chemistry, 2024):
# Like-named read-outs stand apart in the source and are kept apart here.
# Legend:
# [1] = Measured pKa (potentiometric and UV methods); format: physicochemical; conditions: measured at Charles River
# [2] = tested on: patients with CF homozygous for ΔF508; design: method as in PMID 31594690; conditions: patients receiving ivacaftor/lumacaftor; cited from earlier work
# (h)Sigma = test: Radioligand binding, (h)Sigma (Eurofins panel); design: species or system human; conditions: read-out: IC50, inhibition of radioligand binding to (h)Sigma
# PK mouse = format: in vivo
# CYP3A4 = test: CYP reversible inhibition in HLM, CYP3A4; format: in vitro ADME; conditions: human, human liver microsomes
# Experimental: (§1) Test compounds were diluted in methanol and then added to mixture containing 50 mM potassium phosphate buffer, pH 7.4, human liver microsomes (BD Gentest) and probe substrate. After prewarming for 5 min at 37 °C, the reaction was started by adding cofactor mix (7.65 mg/mL glucose-6-phosphate, 1.7 mg/mL NADP, 6 U/mL of glucose-6-phosphate dehydrogenase), resulting in seven final concentrations of test compounds in the range 0.14–100 μM (2% methanol). Isoform specific conditions regarding probe substrate and microsomal protein concentrations are available in Table 2. Final concentrations of cofactor mix components were as follows: 1.56 mg/mL glucose-6-phosphate, 0.34 mg/mL NADP, and 1.2 U/mL glucose-6-phosphate dehydrogenase. After incubation at 37 °C, the reaction was terminated with acetonitrile:methanol (2:1) solution with internal standard. Samples were centrifuged, and the supernatant fractions were analyzed by LC-MS/MS. The instrument responses (test compounds and internal standard peak areas) were referenced to those for solvent controls (assumed as 100%) in order to determine the percentage reduction in probe metabolism. Percent of control activity vs concentration plots were generated and fitted using GraphPad Prism software to generate IC50.
# [3] = Liver microsomal stability, dog; format: in vitro ADME; conditions: matrix not given, read-out: Clintr,unbound dog
# Experimental: (§2) The microsomal stability assay was performed by incubation of test compound at 1 μM, 0.2% DMSO in phosphate buffer with microsomes (0.5 mg/mL) from mouse, rat, dog, or human (Xeno-Tech, Kansas City, KS, USA), and cofactors with final concentrations of 0.6 U/mL glucose-6- phosphate dehydrogenase, 3.3 mM MgCl2, 3.3 mM glucose-6-phosphate, and 1.3 mM nicotinamide adenine dinucleotide phosphate (NADP)+. Before addition of the microsomes (time zero) and after 30 min of incubation at 37 °C with shaking, the reaction was stopped, and proteins were precipitated with an excess of acetonitrile containing an internal standard. The samples were mixed, centrifuged, and filtered, and the supernatant was analyzed by liquid chromatography–mass spectrometry/mass spectrometry (LC–MS/MS). […] In vitro unbound intrinsic clearance (CLint,u) was calculated from the half-life using the following equations: [drawing 1] […]
# (§3) Equilibrium dialysis is a technique used to measure microsomal binding. […] Each compound was analyzed in duplicate for 4 h at 37 °C. At the end of incubation, both chambers were sampled and analyzed by LC-MS/MS. The unbound microsomal fraction (fu, mic) was calculated as the concentration in buffer divided by the total concentration in the microsomal side. […]
# hERG = hERG (Homo sapiens, UniProt Q12809); test: hERG manual patch clamp test; format: cell-based
# hERG, sequence (Q12809 whole entry): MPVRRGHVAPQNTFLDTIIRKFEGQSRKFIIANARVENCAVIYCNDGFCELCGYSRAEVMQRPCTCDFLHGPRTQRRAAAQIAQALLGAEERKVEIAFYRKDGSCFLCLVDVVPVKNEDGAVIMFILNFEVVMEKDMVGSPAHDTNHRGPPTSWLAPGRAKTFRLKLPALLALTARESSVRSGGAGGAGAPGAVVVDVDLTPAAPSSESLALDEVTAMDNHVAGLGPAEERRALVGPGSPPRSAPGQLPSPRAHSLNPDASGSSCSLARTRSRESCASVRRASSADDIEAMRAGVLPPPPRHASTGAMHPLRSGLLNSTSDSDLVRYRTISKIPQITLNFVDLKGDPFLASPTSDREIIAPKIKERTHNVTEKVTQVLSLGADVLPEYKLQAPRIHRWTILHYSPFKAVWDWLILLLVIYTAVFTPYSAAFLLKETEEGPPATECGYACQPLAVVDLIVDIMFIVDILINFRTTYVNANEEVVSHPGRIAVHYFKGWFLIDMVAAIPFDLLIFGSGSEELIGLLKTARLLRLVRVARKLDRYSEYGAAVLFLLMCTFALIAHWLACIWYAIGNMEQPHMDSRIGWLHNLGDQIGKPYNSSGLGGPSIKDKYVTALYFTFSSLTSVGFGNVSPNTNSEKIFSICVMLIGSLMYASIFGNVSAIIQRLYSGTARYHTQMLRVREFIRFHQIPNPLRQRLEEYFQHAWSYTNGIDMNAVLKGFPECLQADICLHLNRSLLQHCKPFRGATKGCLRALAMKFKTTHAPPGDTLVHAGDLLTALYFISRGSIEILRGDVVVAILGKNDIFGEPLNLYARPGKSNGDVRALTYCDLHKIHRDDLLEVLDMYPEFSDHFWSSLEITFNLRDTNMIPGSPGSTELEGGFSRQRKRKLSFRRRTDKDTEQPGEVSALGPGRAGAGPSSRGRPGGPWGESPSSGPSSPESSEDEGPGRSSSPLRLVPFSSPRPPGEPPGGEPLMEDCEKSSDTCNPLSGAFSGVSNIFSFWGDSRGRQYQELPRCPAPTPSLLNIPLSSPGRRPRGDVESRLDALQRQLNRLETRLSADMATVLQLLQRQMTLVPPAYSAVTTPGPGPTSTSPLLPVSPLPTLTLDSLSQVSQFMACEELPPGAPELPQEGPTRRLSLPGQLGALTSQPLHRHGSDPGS
# [4] = Liver microsomal stability, human; format: in vitro ADME; conditions: human; matrix not given; read-out: Clintr,unbound human (converted)
# Experimental: The microsomal stability assay was performed by incubation of test compound at 1 μM, 0.2% DMSO in phosphate buffer with microsomes (0.5 mg/mL) from mouse, rat, dog, or human (Xeno-Tech, Kansas City, KS, USA), and cofactors with final concentrations of 0.6 U/mL glucose-6- phosphate dehydrogenase, 3.3 mM MgCl2, 3.3 mM glucose-6-phosphate, and 1.3 mM nicotinamide adenine dinucleotide phosphate (NADP)+. Before addition of the microsomes (time zero) and after 30 min of incubation at 37 °C with shaking, the reaction was stopped, and proteins were precipitated with an excess of acetonitrile containing an internal standard. The samples were mixed, centrifuged, and filtered, and the supernatant was analyzed by liquid chromatography–mass spectrometry/mass spectrometry (LC–MS/MS). The instrument responses (peak areas/IS peak areas) were referenced to the zero-time point samples (considered as 100%) to determine the percentage of compound remaining. In vitro unbound intrinsic clearance (CLint,u) was calculated from the half-life using the following equations: [drawing 1] [drawing 2] To take into account nonspecific binding, scaled CLint values were corrected with the fraction unbound in microsomes (fu, mic). [drawing 3]
# Equilibrium dialysis is a technique used to measure microsomal binding. Briefly, the assay was performed in a 96-well Teflon dialysis unit (Dialysis Device), where each well consists of two chambers separated by a dialysis membrane (membrane strips, MW cutoff 12–14 kDa, HTDialysis). Inactivated liver microsomes (pooled human liver microsomes, Xenotech, protein concentration of 0.5 mg/mL) spiked with a compound (1 μM final concentration, 0.5% DMSO) were added to one chamber and buffer solution (50 mM PBS Buffer) was added to the other side of the well. Each compound was analyzed in duplicate for 4 h at 37 °C. At the end of incubation, both chambers were sampled and analyzed by LC-MS/MS. The unbound microsomal fraction (fu, mic) was calculated as the concentration in buffer divided by the total concentration in the microsomal side. Positive controls included in this assay are terfenadine and verapamil.
# [5] = In vitro micronucleus test; format: cell-based
# [6] = Liver microsomal stability, monkey; format: in vitro ADME; conditions: matrix not given, read-out: Clintr,unbound monkey (converted)
# Experimental: as §2, §3
# CYP2C19 = molecular target: T1, CYP2C19 (Homo sapiens, UniProt P33261); test: CYP reversible inhibition in HLM, CYP2C19; format: in vitro ADME; conditions: probe S-mephenytoin
# T1 construct: tissue BD Gentest; host or cells: human liver microsomes
# T1 sequence (P33261 whole entry): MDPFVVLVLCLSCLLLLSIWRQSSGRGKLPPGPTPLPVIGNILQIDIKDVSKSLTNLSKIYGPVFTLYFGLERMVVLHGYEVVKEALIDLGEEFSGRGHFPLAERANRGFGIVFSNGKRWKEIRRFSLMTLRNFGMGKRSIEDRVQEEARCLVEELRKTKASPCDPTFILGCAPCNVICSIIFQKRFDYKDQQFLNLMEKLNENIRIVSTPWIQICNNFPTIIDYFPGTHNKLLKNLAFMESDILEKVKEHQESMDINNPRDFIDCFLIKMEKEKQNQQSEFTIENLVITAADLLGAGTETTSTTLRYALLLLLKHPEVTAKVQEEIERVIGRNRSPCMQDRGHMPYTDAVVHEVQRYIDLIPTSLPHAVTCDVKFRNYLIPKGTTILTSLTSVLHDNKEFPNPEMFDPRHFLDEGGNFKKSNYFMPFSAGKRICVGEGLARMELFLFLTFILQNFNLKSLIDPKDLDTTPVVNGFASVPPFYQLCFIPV
# Experimental: as §1
# CYP1A2 = molecular target: T2, CYP1A2 (Homo sapiens, UniProt P05177); test: CYP reversible inhibition in HLM, CYP1A2; format: in vitro ADME; conditions: probe phenacetin
# T2 construct: tissue BD Gentest; host or cells: human liver microsomes
# T2 sequence (P05177 1-516): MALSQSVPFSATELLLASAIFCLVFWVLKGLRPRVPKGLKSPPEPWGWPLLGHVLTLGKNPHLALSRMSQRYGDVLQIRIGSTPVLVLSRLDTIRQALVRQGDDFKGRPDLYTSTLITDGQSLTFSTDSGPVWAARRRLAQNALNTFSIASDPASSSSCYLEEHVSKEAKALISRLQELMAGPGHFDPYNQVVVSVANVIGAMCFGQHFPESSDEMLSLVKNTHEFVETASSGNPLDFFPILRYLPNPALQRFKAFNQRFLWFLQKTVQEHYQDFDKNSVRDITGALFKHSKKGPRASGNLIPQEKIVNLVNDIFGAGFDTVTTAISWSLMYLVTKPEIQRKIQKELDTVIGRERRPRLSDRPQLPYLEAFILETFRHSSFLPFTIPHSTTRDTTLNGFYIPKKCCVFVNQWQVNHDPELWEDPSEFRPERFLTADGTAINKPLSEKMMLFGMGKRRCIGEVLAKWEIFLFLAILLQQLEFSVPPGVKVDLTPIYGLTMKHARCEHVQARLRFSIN
# Experimental: as §1
smiles,measurement,setting,value
"COC1CCN(C2CCN(c3cc(C(=O)NS(=O)(=O)N(C)C)nc4c3c(C3CCC3)nn4-c3ccc(F)cc3)CC2)CC1 [Compound 52, 3-Cyclobutyl-N-(N,N-dimethylsulfamoyl)-1-(4-fluorophenyl)-4-(4-methoxy-[1,4′-bipiperidin]-1′-yl)-1H-pyrazolo[3,4-b]pyridine-6-carboxamide]",pKa,"[1]; UV method, read-out: measured acylsulfonamyl pKa",4.74
same,pKa,"[1]; UV method, read-out: measured piperidine pKa",8.51
same,pKa,"[1]; potentiometric method, read-out: measured acylsulfonamyl pKa",4.96
same,pKa,"[1]; potentiometric method, read-out: measured piperidine pKa",8.42
same,efficacy versus placebo,[2],improved efficacy versus placebo
same,tolerability,[2],well tolerated
same,IC50,(h)Sigma,360 nM
same,F (%) mouse,PK mouse; 5 mg/kg po,71.3%
same,Vd,"PK mouse; plasma, 1 mg/kg iv, read-out: Vss mouse",1.27 L/kg
same,half-life,"PK mouse; plasma, 1 mg/kg iv, read-out: t1/2 iv mouse (converted)",193 min
same,clearance,"PK mouse; plasma, iv, 1 mg/kg, 1 mg/kg iv, read-out: Clp mouse (converted)",4.67 mL/min/kg
same,Unbound clearance,"PK mouse; plasma, iv, 1 mg/kg, 1 mg/kg iv, unbound clearance, read-out: Cl.u mouse (converted)",1110 mL/min/kg
same,IC50,"CYP3A4; pH 7.4, probe midazolam",> 100 µM
same,IC50,"CYP3A4; pH 7.4, probe testosterone",> 100 µM
same,CLint scaled at 1 μM,[3],< 32 mL/min/kg
same,hERG inhibition,hERG,No significant inhibition
same,CLint scaled at 1 μM,[4],66.7 mL/min/kg
same,clastogenicity / aneugenicity,[5],"not mutagenic, clastogenic, or aneugenic"
same,CLint scaled at 1 μM,[6],347 mL/min/kg
same,IC50,CYP2C19,> 33 µM
same,IC50,CYP1A2,> 100 µM
